According to patent US11925667B2, “Engineered therapeutic probiotic system and method” (priority 2018, dated 2024):

Experiments:
Assay type in all cases: biochemical
[1] = biological target: T1, Brevicoryne brassicae myrosinase BMY1 (Brevicoryne brassicae, UniProt Q95X01); assay: Myrosinase activity assay (glucose release from sinigrin hydrolysis), BMY1
T1 sequence (Q95X01 1-464): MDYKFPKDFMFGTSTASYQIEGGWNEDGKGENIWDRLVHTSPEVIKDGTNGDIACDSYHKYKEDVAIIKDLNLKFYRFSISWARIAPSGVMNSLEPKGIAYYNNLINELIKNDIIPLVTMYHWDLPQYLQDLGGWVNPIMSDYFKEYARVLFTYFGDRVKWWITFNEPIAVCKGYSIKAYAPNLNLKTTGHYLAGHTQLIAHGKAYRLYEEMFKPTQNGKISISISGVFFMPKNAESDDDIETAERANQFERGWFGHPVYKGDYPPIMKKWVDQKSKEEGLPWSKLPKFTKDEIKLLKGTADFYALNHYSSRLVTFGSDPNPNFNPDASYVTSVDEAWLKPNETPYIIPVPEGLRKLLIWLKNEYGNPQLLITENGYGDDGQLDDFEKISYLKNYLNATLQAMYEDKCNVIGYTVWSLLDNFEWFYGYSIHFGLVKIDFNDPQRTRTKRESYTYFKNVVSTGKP
Procedure: (§1) Screening for improved β-thioglucosidase. The activity and stability of myrosinase, a β-thioglucosidase that hydrolyzes glucosinolate to sulforaphane, varies at differing pH and temperature; in a preferred embodiment the selected enzyme needs to function under physiological colorectal conditions. The healthy colon pH averages 6.6, while it is 7.0 and 6.7 in patients with adenoma and carcinoma, respectively. In addition, the temperature of the human intestinal tract ranges from 36° C. to 40° C. depending on the individual's metabolic state. In the illustrative example five plant-derived myrosinase orthologues with minimal glycosylation sites and the absence of the co-factor-binding sites using the BLAST search and the Enzyme Function Initiative-Enzyme Similarity Tool (EFI-EST), are compared to the well-characterized myrosinases from Brevicoryne brassicae (BMY1) and Arabidopsis thaliana (TGG1) (FIG. 2a and FIG. 7).
(§2) Gene cloning, protein expression and purification. Myrosinase genes are optimized for E. coli expression and cloned into the pET28b expression vector. The plasmids are transformed into E. coli BL21 (DE3) cultured in lysogeny broth (LB) (BD, Le Pont de Claix, France) at 37° C., 225 rpm to OD600 0.6 followed by 0.5 mM isopropyl β-D-1-thiogalactopyranoside (IPTG) induction at 16° C., 180 rpm for 16 hours. Cells are harvested, resuspended in lysis buffer (50 mM Tris-Cl, 300 mM NaCl, 10% glycerol, 1 mM dithiothreitol [DTT], pH 8.0) and lysed using Emulsiflex C-3 (Avestin). Expressed myrosinases are purified by IMAC Ni-NTA purification followed by Hi-Load Superdex 200 size exclusion column chromatography (GE, Uppsala, Sweden). The purified protein is concentrated and stored at −80° C. Pilot scale protein purification and enzymatic assay is conducted.
(§3) Myrosinase screening assay. The enzymatic reaction is measured for the release of glucose resulting from sinigrin hydrolysis. The reaction is conducted in sodium phosphate-buffered solution supplied in the Amplex® Red Glucose/Glucose Oxidase Assay Kit (Thermo Fisher Scientific, Geel, Belgium). The reaction buffer is prepared at different pH values (6.0, 6.5, 7.4 and 8.0) and at different reaction temperatures (34° C., 37° C., and 40° C.). The reaction is prepared using 0.1 μM purified myrosinase added to 1× Amplex® Red Glucose Assay reaction mixture and was kick-started with the corresponding concentration of sinigrin. The reaction can be measured at 560 nm absorbance and fluorescence (λex=540 nm, λem=590 nm) using a Synergy H1 Multi-Mode microtiter plate reader (BioTek®, Winooski, USA). The reaction initial velocity (VO) is determined and fitted into a Michaelis-Menten curve. Vmax and KM are determined by fitting into the Michaelis-Menten equation (Eq. 1) using GraphPad Prism Software. ^v=Vmax*[Sinigrin]/(KM+[Sinigrin]) (Eq.1)
(§4) Table S1|Myrosinase activity assay screening under various pH and temperature conditions (n=3 independent experiments, each measurement performed in triplicates; mean[…].).

[2] = biological target: T2, Armoracia rusticana myrosinase I1, SEQ ID NO: 6 (Armoracia rusticana, UniProt I1TIJ2); assay: Myrosinase activity assay (glucose release from sinigrin hydrolysis), I1
T2 construct: elsewhere used as YebF-I1 fusion
T2 sequence (I1TIJ2 23-510): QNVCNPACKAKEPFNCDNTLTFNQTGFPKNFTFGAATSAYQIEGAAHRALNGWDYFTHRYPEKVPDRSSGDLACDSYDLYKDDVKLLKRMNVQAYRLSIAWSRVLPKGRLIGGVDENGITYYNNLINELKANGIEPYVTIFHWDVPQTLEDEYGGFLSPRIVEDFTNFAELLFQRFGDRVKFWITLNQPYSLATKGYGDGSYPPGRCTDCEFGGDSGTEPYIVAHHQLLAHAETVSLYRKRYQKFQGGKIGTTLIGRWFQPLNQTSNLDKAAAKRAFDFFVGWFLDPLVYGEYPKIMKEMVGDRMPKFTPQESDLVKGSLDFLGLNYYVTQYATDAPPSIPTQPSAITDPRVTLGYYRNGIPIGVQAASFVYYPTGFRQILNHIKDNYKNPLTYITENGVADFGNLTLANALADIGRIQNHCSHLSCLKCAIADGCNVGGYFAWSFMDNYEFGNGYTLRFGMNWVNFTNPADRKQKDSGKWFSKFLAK
Excerpt: (§5) In a preferred embodiment, the myrosinases derived from Armoracia rusticana (I1) and Brassica oleacea (A6) have a better stability and catalytic efficiency in various temperatures and pH values when compared with those derived from BMY1 and TGG1 (Table 1). In a preferred illustrative embodiment I1 myrosinase is selected owing to its Km value and improved kcat at the colorectal ambient temperature and pH (FIG. 2c, 2d and Table 1). By comparing the modeled-I1 myrosinase protein structure against that of the BMY1 myrosinase, the critical side chain residues involved in glucose-ring recognition and the glutamic acid that served as a nucleophile during catalysis are conserved. According to the claimed invention the improved catalytic efficiency of the I1 myrosinase is correlated to its pI value (pI=7.90) and the overall positively charged surface (FIG. 8) that contributes to better structural stability.
as §2, §3, §4

[3] = test system: Brassica oleacea myrosinase A6; assay: Myrosinase activity assay (glucose release from sinigrin hydrolysis), A6
Excerpt: as §5, §2, §3, §4

[4] = test system: myrosinase C9 (plant-derived myrosinase orthologue); assay: Myrosinase activity assay (glucose release from sinigrin hydrolysis), C9
Procedure: as §1, §2, §3, §4

[5] = test system: myrosinase Q9 (plant-derived myrosinase orthologue); assay: Myrosinase activity assay (glucose release from sinigrin hydrolysis), Q9
Procedure: as §1, §2, §3, §4

[6] = biological target: Arabidopsis thaliana myrosinase TGG1 (Arabidopsis thaliana, UniProt P37702); assay: Myrosinase activity assay (glucose release from sinigrin hydrolysis), TGG1
Sequence of Arabidopsis thaliana myrosinase TGG1 (P37702 20-541): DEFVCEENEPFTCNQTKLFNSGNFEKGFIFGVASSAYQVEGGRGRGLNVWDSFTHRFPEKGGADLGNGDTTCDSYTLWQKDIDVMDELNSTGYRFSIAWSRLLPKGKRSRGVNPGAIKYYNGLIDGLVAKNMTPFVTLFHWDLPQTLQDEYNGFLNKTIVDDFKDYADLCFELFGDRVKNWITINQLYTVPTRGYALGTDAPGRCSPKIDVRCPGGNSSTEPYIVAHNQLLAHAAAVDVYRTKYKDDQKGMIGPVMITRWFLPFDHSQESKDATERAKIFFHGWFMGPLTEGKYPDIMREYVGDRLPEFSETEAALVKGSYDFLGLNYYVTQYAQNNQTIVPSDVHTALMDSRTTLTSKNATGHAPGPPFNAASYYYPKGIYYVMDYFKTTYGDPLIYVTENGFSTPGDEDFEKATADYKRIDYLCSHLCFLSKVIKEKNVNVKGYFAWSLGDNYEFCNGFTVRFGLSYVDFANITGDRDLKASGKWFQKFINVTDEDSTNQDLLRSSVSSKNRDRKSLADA
Procedure: as §1, §2, §3, §4

[7] = test system: myrosinase Q5 (plant-derived myrosinase orthologue); assay: Myrosinase activity assay (glucose release from sinigrin hydrolysis), Q5
Procedure: as §1, §2, §3, §4

C=CC/C(=N/OS(=O)(=O)O)S[C@@H]1O[C@H](CO)[C@@H](O)[C@H](O)[C@H]1O [sinigrin]
kcar ([1]; pH 6.0, 37° C.): 5.7 ± 0.8 s⁻¹
kcar ([1]; pH 6.5, 37° C.): 11.8 ± 0.4 s⁻¹
kcar ([1]; pH 7.4, 34° C.): 6.9 ± 0.4 s⁻¹
kcar ([1]; pH 7.4, 37° C.): 6.0 ± 0.7 s⁻¹
kcar ([1]; pH 7.4, 40° C.): 9.1 ± 0.8 s⁻¹
kcar ([1]; pH 8.0, 37° C.): 5.6 ± 0.6 s⁻¹
kcar ([2]; pH 6.0, 37° C.): 6.6 ± 0.7 s⁻¹
kcar ([2]; pH 6.5, 37° C.): 7.9 ± 1.1 s⁻¹
kcar ([2]; pH 7.4, 34° C.): 3.4 ± 0.7 s⁻¹
kcar ([2]; pH 7.4, 37° C.): 15.0 ± 1.5 s⁻¹
kcar ([2]; pH 7.4, 40° C.): 15.2 ± 1.5 s⁻¹
kcar ([2]; pH 8.0, 37° C.): 6.6 ± 3.1 s⁻¹
Km ([3]; pH 6.0, 37° C.): 68 ± 2 µM
kcar ([3]; pH 6.0, 37° C.): 6.6 ± 1.3 s⁻¹
Km ([3]; pH 6.5, 37° C.): 187 ± 13 µM
kcar ([3]; pH 6.5, 37° C.): 15.0 ± 1.5 s⁻¹
Km ([3]; pH 7.4, 34° C.): 47 ± 5 µM
kcar ([3]; pH 7.4, 34° C.): 7.2 ± 1.3 s⁻¹
Km ([3]; pH 7.4, 37° C.): 44 ± 4 µM
kcar ([3]; pH 7.4, 37° C.): 5.2 ± 0.9 s⁻¹
Km ([3]; pH 7.4, 40° C.): 189 ± 39 µM
kcar ([3]; pH 7.4, 40° C.): 9.7 ± 1.3 s⁻¹
Km ([3]; pH 8.0, 37° C.): 142 ± 22 µM
kcar ([3]; pH 8.0, 37° C.): 9.3 ± 1.2 s⁻¹
Km ([4]; pH 6.0, 37° C.): 439 ± 97 µM
kcar ([4]; pH 6.0, 37° C.): 5.6 ± 0.8 s⁻¹
Km ([4]; pH 6.5, 37° C.): 290 ± 31 µM
kcar ([4]; pH 6.5, 37° C.): 9.0 ± 0.9 s⁻¹
Km ([4]; pH 7.4, 34° C.): 384 ± 28 µM
kcar ([4]; pH 7.4, 34° C.): 11.2 ± 2.4 s⁻¹
Km ([4]; pH 7.4, 37° C.): 38 ± 2 µM
kcar ([4]; pH 7.4, 37° C.): 3.4 ± 0.6 s⁻¹
Km ([4]; pH 7.4, 40° C.): 352 ± 68 µM
kcar ([4]; pH 7.4, 40° C.): 9.0 ± 0.9 s⁻¹
Km ([4]; pH 8.0, 37° C.): 842 ± 80 µM
kcar ([4]; pH 8.0, 37° C.): 10.7 ± 1.3 s⁻¹
Km ([5]; pH 6.0, 37° C.): 111 ± 3 µM
kcar ([5]; pH 6.0, 37° C.): 3.0 ± 0.6 s⁻¹
Km ([5]; pH 6.5, 37° C.): 291 ± 5 µM
kcar ([5]; pH 6.5, 37° C.): 7.8 ± 0.8 s⁻¹
kcar ([5]; pH 7.4, 34° C.): 13.0 ± 3.5 s⁻¹
kcar ([5]; pH 7.4, 37° C.): 3.8 ± 1.5 s⁻¹
Km ([5]; pH 7.4, 40° C.): 893 ± 23 µM
kcar ([5]; pH 7.4, 40° C.): 12.3 ± 3.9 s⁻¹
Km ([5]; pH 8.0, 37° C.): 473 ± 6 µM
kcar ([5]; pH 8.0, 37° C.): 4.4 ± 1.0 s⁻¹
kcar ([6]; pH 6.0, 37° C.): 10.2 ± 0.6 s⁻¹
kcar ([6]; pH 6.5, 37° C.): 8.6 ± 1.6 s⁻¹
kcar ([6]; pH 7.4, 34° C.): 6.9 ± 1.6 s⁻¹
kcar ([6]; pH 7.4, 37° C.): 6.4 ± 1.1 s⁻¹
kcar ([6]; pH 7.4, 40° C.): 6.5 ± 0.2 s⁻¹
kcar ([6]; pH 8.0, 37° C.): 4.3 ± 0.7 s⁻¹
Km ([7]; pH 6.0, 37° C.): 184 ± 15 µM
kcar ([7]; pH 6.0, 37° C.): 4.6 ± 1.1 s⁻¹
Km ([7]; pH 6.5, 37° C.): 127 ± 21 µM
kcar ([7]; pH 6.5, 37° C.): 4.9 ± 1.2 s⁻¹
Km ([7]; pH 7.4, 34° C.): 225 ± 13 µM
kcar ([7]; pH 7.4, 34° C.): 2.9 ± 1.4 s⁻¹
Km ([7]; pH 7.4, 37° C.): 25 ± 7 µM
kcar ([7]; pH 7.4, 37° C.): 2.1 ± 1.6 s⁻¹
Km ([7]; pH 7.4, 40° C.): 49 ± 14 µM
kcar ([7]; pH 7.4, 40° C.): 3.7 ± 1.6 s⁻¹
Km ([7]; pH 8.0, 37° C.): 154 ± 24 µM
kcar ([7]; pH 8.0, 37° C.): 2.8 ± 1.1 s⁻¹
